Experimental data: patent US10517952B2, “Nucleophile-triggered degradable materials and methods of making and using the same” (GEORGIA TECH RESEARCH CORPORATION, priority 2014, dated 2019)

How the values were obtained:
Type in all cases: physicochemical
[1] = Calculation of hydrogel mesh size from equilibrium swelling data; settings: equilibrium-swollen gels
Procedure: Using the calculated molecular weight between crosslinks, Mc, and the method previously described by Canal and Peppas, the hydrogel mesh size was calculated. First, the root-mean-square end-to-end distance of the polymer chains in the network, (r0^2)^1/2, was calculated as follows: (r0^2)^1/2=lCn^1/2n^1/2 (Equation S10) where l is the average bond length in the polymer (0.146 nm for PEG) and Cn is the characteristic ratio of the polymer (4.0 for PEG). The average number of bonds between crosslinks, n is calculated using the following equation:
[formula] where Mc is the average molecular weight between crosslinks, calculated as described in the previous section, and Mr is the molecular weight of the repeating unit for the PEG macromer (44 g/mol). Finally, the mesh size, ξ, is calculated using the following relationship: ξ=v2,s^−1/3(r0^2)^1/2 (Equation S12) where v2, is the partial volume of polymer in the equilibrium swollen hydrogel, and is calculated using the experimentally determined equilibrium weight swelling ratios.

[2] = Equilibrium swelling, gel fraction and Mc (Flory-Rehner) of PEG-OND hydrogels
Procedure: The swelling of the PEG-OND hydrogels in deionized water was measured at 4° C. to prevent significant fragmentation during the experiment. […] An independent experiment measuring soluble fraction thiol content yielded results complementing those obtained gravimetrically (Table S3, and related discussion below). With the knowledge that small molecules can readily permeate swollen PEG-OND hydrogels (see below), detecting and modifying residual thiols in gels prepared from divalent linkers 7a and 8 by swelling in the presence of a fluorogenic OND derivative was attempted (FIG. 15, and related discussion below).
200 μL gels were prepared in pH 7.4 100 mM phosphate buffered saline containing 7% DMSO with 3.5 wt % 4-PEG-SH and the corresponding bis-, tris-, and tetra-ONDs to provide a 1:1 thiol to electrophile ratio, and allowed to cure for 20 minutes at room temperature. The mass of the gels after curing was recorded (Meq) before suspending in 5.5 mL of water. The hydrogels were stored at 4° C. during swelling to prevent significant degradation of the network during the experiment. The increase in mass of the gels was monitored periodically by decanting and blotting the gel gently with a kimwipe to remove excess water before weighing. After 24 hours swelling, when swelling had stabilized, the mass of the gel was recorded (Meq). The equilibrium mass swelling ratio was then determined using the following relationship:
After weighing equilibrium-swelled gels to determine equilibrium mass swelling ratio, the gels were freeze-dried and the residual mass was weighed (Mres). It is expected that buffer salts present in the sample when it was formed were removed by the multiple changes of swelling solvent (pure water). The mass of the remaining residue was compared to the input mass (Min) of 4-PEG-SH macromer and OND-based linker. The ratio of the residual mass and the input mass provides the fraction of material by mass incorporated into the hydrogel network (gel fraction), as shown in the following equation: […]
The apparent molecular weight between elastically-productive crosslinks (Mc) was determined from equilibrium swelling data, collected as described in section VII.1 and applying a modified form of the Flory-Rehner equation for networks formed under dilute conditions:
[formula] where Mn is the number average molecular weight for the polymeric macromer (10,000 g/mol), v is the specific volume of the polymer ([…] for PEG) V1 is the molar volume of solvent used for swelling ([…] for water), χ is the polymer-interaction parameter (0.43 for PEG-H2O and assumed constant for the described experiments). V2, and V2, are the volume fraction of polymer in the equilibrium swollen gel and the relaxed gel after curing, respectively, and are calculated as follows:
[formula] where qw is the weight swelling ratio after equilibrium swelling, qF is the weight swelling ratio after curing, ρp is the density of the polymer (1.12 g/cm^3 for PEG), ρwater=ρcure solvent is the density of swelling solvent and solvent during gel formation (1.00 g/cm^3 for water). The weight swelling ratios qw and qF are determined from data gathered in equilibrium swelling experiments using the following relationships:
[formula] where ms is the mass of the gel after equilibrium swelling, mc is the mass of the gel after curing, and md is the mass of the dried gel, or input mass of polymer and crosslinkers.
Using the formulae above, masses of hydrogel samples recorded after equilibrium swelling, curing, and drying were applied to estimate the apparent molecular weight between crosslinks, which are summarized in Table 1 of the main text. The experimentally observed Mc values for gels formed using divalent OND linkers was lower than theoretical ideal value Mc,ideal. This can be explained by the fact that the Mc,ideal values calculated for these gels (entries 1-5 of Table S1) are greater than the entanglement molecular weight for polyethylene glycol (˜4,400 g/mol). […]

[3] = Erosion of swollen hydrogels (BODIPY erosion probe, time-lapse photography); settings: 37° C., erosion probe
Description: Degradation behavior of PEG-OND hydrogels under swelling conditions was investigated by labeling 3% of the 4-PEG-SH thiols with a BODIPY fluorophore via maleimide coupling before gelation. Gels prepared from this material are expected to have slightly lower crosslink densities and to degrade sooner when compared to gels formed without the erosion probe (FIG. 19). However, the probe-labeled macromer allowed convenient monitoring and comparison of erosion behavior under conditions relevant for biological applications. An increase in absorbance (504 nm) of the swelling buffer was observed as pieces containing the labeled PEG-thiol components were detached from the gel by rDA fragmentation (FIG. 2). […] Using combinations of linkers, it was possible to produce hydrogels with release profiles tuned between those of gels prepared from a single linker (FIG. 2C).
The 3.76 wt % solution of BODIPY-labeled 4-PEG-SH prepared above was used to form hydrogels using a method identical to unlabeled gels. Briefly, BODIPY-labeled 4-PEG-SH was combined with DMSO stocks of multivalent ONDs at equimolar concentration of thiol and electrophile. […] The absorbance of the supernatant at 504 nm was measured immediately to obtain a baseline measurement (t=0 hours), and the samples were placed into a 37° C. incubator. The absorbance of the swelling supernatant was monitored periodically by removal of 1 mL of buffer into a cuvette and measuring absorbance of the sample at 504 nm. […] This process was repeated for each sample until gel degradation was complete and the absorbance at 504 nm stabilized (100% dye released). In order to estimate the fraction of dye released from the non-degradable gel formed with bi s-EONB 8, a mock endpoint sample consisting of BODIPY-labeled 4-PEG-SH diluted to 3.5 wt % was prepared, and the absorbance at 504 nm was measured. […] The absorbance values collected over the course of the experiment were divided by the absorbance value measured after gel disintegration to obtain fractional dye release versus time. […]
The time at which the glass bead reached the bottom of the tube was recorded. […]

**Q.** With `COC(=O)C1=C(C(=O)OC)C2(CNC(=O)CCOCC(COCCC(=O)NCC34C=CC(O3)C(C(=O)OC)=C4C(=O)OC)(COCCC(=O)NCC34C=CC(O3)C(C(=O)OC)=C4C(=O)OC)COCCC(=O)NCC34C=CC(O3)C(C(=O)OC)=C4C(=O)OC)C=CC1O2` (centres unmarked) [Linker 12, Tetramethyl 1,1′-(8,8-bis((3-(((2,3-bis(methoxycarbonyl)-7-oxabicyclo[2.2.1]hepta-2,5-dien-1-yl)methyl)amino)-3-oxopropoxy)methyl)-3,13-dioxo-6,10-dioxa-2,14-diazapentadecane-1,15-diyl)bis(7-oxabicyclo[2.2.1]hepta-2,5-diene-2,3-dicarboxylate)] as the compound, how does the Calculated mesh size [1] read?
**A.** 13.3 ± 0.9 nm

**Q.** What about the “Mc (apparent molecular weight between elastic crosslinks)” value ([2]; calculated with the Flory-Rehner equation from swelling results) of the same compound?
**A.** 3740 ± 95 g/mol

**Q.** What about the “Gel Fraction” value ([2]; mass of dry residue post-swelling/input mass of OND and 4-PEG-SH) of the same compound?
**A.** 0.96 ± 0.05

**Q.** What about the “Equilibrium Swelling Ratio” value ([2]; mass post-swelling/mass pre-swelling, deionized water, 4° C., 24 hours, n = 3 gels) of the same compound?
**A.** 1.44 ± 0.08

**Q.** And the “Gel stability under swelling conditions compared with gels from divalent ONDs” value [3]?
**A.** more stable gels
